Peptide text beside a SMILES is read from it. * marks the point of attachment. X1 = O=C(O)CN1CCN(CC(=O)O)CCN(CC(=O)NCCCn2cc(COCC(COCc3cn(CCCNC(=O)CN4CCN(CC(=O)O)CCN(CC(=O)O)CCN(CC(=O)O)CC4)nn3)(COCc3cn(CCCNC(=O)CN4CCN(CC(=O)O)CCN(CC(=O)O)CCN(CC(=O)O)CC4)nn3)NC(=O)CCN3C(=O)CC(*)C3=O)nn2)CCN(CC(=O)O)CC1
Tests used:
[1] = tested on: orthotopic Gli36Δ5 glioma tumors; assay: Quantitative T1 mapping of orthotopic brain tumors with Optimark; conditions: for time of peak contrast following the injection: 0.1 mmol/kg
From the text: This is because T1 mapping is a quantitative MR imaging method that yields the absolute T1 relaxation values as opposed to the relative signal intensity values in T1-weighted images.
High-resolution T2-weighted MR images were acquired to localize the tumor and enable identification of the largest cross-section of tumor on MRI.
Graph 2300 illustrates mean Gd concentrations in the tumor before and after intravenous administration of 0.1 (line 2310) or 0.2 mmol/kg (line 2320) Optimark™ in cohorts of nu/nu athymic mice bearing orthotopic glioma tumors. Data is plotted as means+/−standard error. The mean tumor Gd concentration was measured at baseline or pre-agent and after contrast agent injection was measured every 2.5 minutes for 30 minutes.

[2] = tested on: LN-229 flank tumors; assay: Dynamic quantitative T1 mapping and Gd concentration maps of flank tumors
Procedure: Representative bright-field images of GFP-positive LN-229 flank tumors for animals where 0.2 mmol Gd/kg of Optimark™, scrambled-Tris-(Gd-DOTA)3, or SBK2-Tris-(Gd-DOTA)3 was administered are presented in row 1210 in columns 1202, 1204, and 1206 respectively. GFP fluorescence images of LN-229 tumor cells for each of the three contrast agents are presented in row 1220 in columns 1202, 1204, and 1206 respectively. T2 high resolution images are presented in row 1230 in columns 1202, 1204, and 1206 respectively. T2 low-resolution images with a region of interest (ROI) illustrated by a dashed line are presented in row 1240 in columns 1202, 1204, and 1206 respectively show the tumor area used for T1 map quantification. Axial T1-weighted images of LN-229 flank tumor at baseline or pre-agent (e.g., before injection of contrast agents) are shown in row 1250. Axial T1-weighted images of LN-229 flank tumor at time of maximum contrast (e.g., 15 minutes) following intravenous injection are shown in row 1260.
High-resolution T2-weighted images were obtained for each mouse using a RARE (Rapid Acquisition with Relaxation Enhancement) acquisition (TR/TE=5000/40 ms, 20 slices, resolution=0.117×0.117×0.5 mm) to select the imaging slice for the dynamic T1 mapping acquisition. The dynamic T1 data were then acquired using a snapshot GRE (Gradient Recalled Echo) acquisition with inversion recovery preparation (10 inversion times [263, 775, 1287, 1799, 2311, 2823, 3335, 3847, 4359, and 4871 ms], GRE imaging readout TR/TE=4.0 ms/1.3 ms, flip angle=10 degrees, resolution=0.234×0.234×1 mm, Field of View (FOV)=30×30 mm, and 10 signal averages). The total acquisition time for each T1 mapping scan was 2.5 min. After five baseline/pre-agent T1 mapping scans, Optimark™, the targeted SBK2-Tris-(Gd-DOTA)3 agent, or the non-targeted scrambled-Tris-(Gd-DOTA)3 control was injected at a dose of 0.2 mmol of Gd/kg followed by a 50 μL flush of saline. T1 maps were then consecutively acquired every 2.5 min over 62.5 min.
The MRI data were imported into MATLAB enabling estimation of both pixel-wise T1 relaxation time maps as well as mean intra-tumoral T1 changes using an ROI analysis. The T1 maps were obtained from the T1 mapping acquisition mono-exponential models. To compare the multiple imaging agents, the pre and post-agent T1 maps were then used to calculate maps of percent change in T1, which is directly related to the concentration of each agent within the tumor. To calculate Gd concentrations, T1 relaxivity constants determined at 9.4 T were used along with T1 map values.
As the T1 maps and T2-weighted images were co-registered, the ROI analysis was performed by outlining the ROI on the T2-weighted images. The same ROI was then applied to all of the T1 maps and the average value in the ROI was calculated as a measure of tumor uptake of each imaging agent. Plots of normalized T1 values in the tumor were calculated by dividing the post-agent injection T1 maps by an average of the 5 baseline (pre-agent injection) tumor T1 values. This normalization was performed to limit the effects of variation in the pre-contrast tumor T1 values on the comparison of the molecular imaging agents.
As an imaging marker for contrast agent retention, a slope analysis was performed on the normalized T1 values. Slopes were calculated for Optimark™, scrambled-Tris-(Gd-DOTA)3, and SBK2-Tris-(Gd-DOTA)3 by using all of the mean tumor T1 values from 15 minutes to 60 minutes following agent administration. For each pair of contrast agents, normalized T1 map values at each time point, along with the slopes of post-agent T1 curves were evaluated for statistical significance using a two-tailed Student's t-test, assuming statistical significance at p<0.05.

[3] = tested on: LN-229 flank tumor; type: in vivo, mice
Procedure: FIG. 8 illustrates that the SBK2 based specific molecular imaging agent improves the enhancement of LN-229 tumors. FIG. 8 illustrates representative T1-weighted axial 2D gradient images of LN-229 flank tumor-bearing mice before (pre-injection) (column 840) and at 1 minute (column 842), 5 minutes (column 844), 10 minutes (column 846), 20 minutes (column 848), and 30 minutes (column 850) after the intravenous injection of ProHance™ (row 810), scrambled Tris-(Gd-DOTA)3 (row 820), or SBK2-Tris-(Gd-DOTA)3 (row 830) at 0.1 mmol Gd/kg. FIG. 8 also illustrates axial 2D gradient images heat map overlays on the tumor to indicate contrast intensity. FIG. 8 illustrates heat maps with overlays for T1-weighted axial 2D gradient images of LN-229 flank tumor-bearing mice before (pre-injection) (column 882) and at 1 minute (column 884), 5 minutes (column 886), 10 minutes (column 888), 20 minutes (column 890), and 30 minutes (column 892) after the intravenous injection of ProHance™ (row 860), scrambled Tris-(Gd-DOTA)3 (row 870), or SBK2-Tris-(Gd-DOTA)3 (row 880) at 0.1 mmol Gd/kg.
The SBK2 based specific molecular imaging agent was developed as a diagnostic imaging tool. To function as an imaging tool, SBK2 was conjugated to a Gd chelate [SBK2-Tris-(Gd-DOTA)3] to generate an MR-detectable molecular imaging agent. The ability of SBK2-Tris-(Gd-DOTA)3 to function as a contrast agent was compared to a macrocyclic gadolinium chelate (Gadoteridol, ProHance™) and to a scrambled molecular imaging agent linked to gadolinium [scrambled Tris-(Gd-DOTA)3]. SBK2-Tris-(Gd-DOTA)3 labeled human glioma tumors with a high level of contrast persisting for two hours. […] SBK2-Tris-(Gd-DOTA)3 labeling of PTPμ extracellular fragment retained in the tumor microenvironment is a more specific MR molecular imaging agent than a nonspecific gadolinium chelate.
FIG. 9 illustrates quantitation of LN-229 flank tumor enhancement following administration of control or targeted contrast agents in xenograft mice. Graphs 900 and 910 illustrate dose-response plots of LN-229 flank tumor contrast to noise ratio (CNR) with ProHance™ or SBK2-Tris-(Gd-DOTA)3 respectively administered at 0.03 mmol Gd/kg or 0.1 mmol Gd/kg.
Data is shown as means±SEM. […] At 60 to 120 minutes post-injection, the ProHance™ cleared more rapidly than SBK2-Tris-(Gd-DOTA)3 resulting in greater than 110% increase in SBK2-Tris-(Gd-DOTA)3 tumor CNR compared with ProHance™ (P<0.001). The SBK2-Tris-(Gd-DOTA)3 tumor CNR was approximately 53% greater than the scrambled Tris-(Gd-DOTA)3 tumor CNR at 60 to 90 minutes (P<0.001).

In the case of `COCCNC(=O)CN(CCN(CCN(CC(=O)[O-])CC(=O)NCCOC)CC(=O)[O-])CC(=O)[O-].[Gd+3]` [Optimark™, gadoversetamide], the “time of peak enhancement in the tumors (mean normalized T1)” value ([1]; 0.1 mmol/kg dose) is reported as 5 min, the “change in normalized T1 values” ([1]; 0.1 mmol/kg dose, 5 minutes) is reported as “modest decrease” and the “distinction between T1 value of normal brain and tumor” value ([1]; 0.1 mmol/kg dose, 30 minutes) is reported as “no distinction”. For the same compound, the “time of peak contrast following the injection” value ([1]; T1-weighted FLASH images) was “five”, the “time of peak contrast following the injection” value ([1]; snapshot GRE images, T1 maps, Gd concentration maps) was “two and a half” and the “time of peak enhancement in the tumors (mean normalized T1)” value ([1]; 0.2 mmol/kg dose) was 5 min. For the same compound, the “change in normalized T1 values compared to 0.1 mmol/kg” value ([1]; 0.2 mmol/kg dose, 5 minutes) was “larger decrease”, the “distinction between normalized T1 values of normal brain and tumor” value ([1]; 0.2 mmol/kg dose, 30 minutes) was “weak distinction” and the “time after peak within which contrast agent concentration begins to diminish” value (from here on “time … to diminish”) ([2]; mouse, in vivo) was “thirty”.
C-GEGDDFNWEQVNTLTKPTSD [SBK2] was tested, and the “retention time of the agent in the sample / glioblastoma” value ([3]; mouse, in vivo) was “up to two” and the “time contrast agent concentration remains at peak levels” value ([2]; mouse, in vivo) was “at least sixty”.
In the case of `CC(C)C[C@H](NC(=O)[C@@H](NC(=O)[C@H](CC(N)=O)NC(=O)[C@@H](NC(=O)[C@H](CCC(N)=O)NC(=O)[C@H](CCC(=O)O)NC(=O)[C@H](Cc1c[nH]c2ccccc12)NC(=O)[C@H](CC(N)=O)NC(=O)[C@H](Cc1ccccc1)NC(=O)[C@H](CC(=O)O)NC(=O)[C@H](CC(=O)O)NC(=O)CNC(=O)[C@H](CCC(=O)O)NC(=O)CNC(=O)[C@@H](N)CSC1CC(=O)N(CCC(=O)NC(COCc2cn(CCCNC(=O)CN3CCN(CC(=O)O)CCN(CC(=O)O)CCN(CC(=O)O)CC3)nn2)(COCc2cn(CCCNC(=O)CN3CCN(CC(=O)O)CCN(CC(=O)O)CCN(CC(=O)O)CC3)nn2)COCc2cn(CCCNC(=O)CN3CCN(CC(=O)O)CCN(CC(=O)O)CCN(CC(=O)O)CC3)nn2)C1=O)C(C)C)[C@@H](C)O)C(=O)N[C@H](C(=O)N[C@@H](CCCCN)C(=O)N1CCC[C@H]1C(=O)N[C@H](C(=O)N[C@@H](CO)C(=O)N[C@@H](CC(=O)O)C(=O)O)[C@@H](C)O)[C@@H](C)O` (some centres unmarked) [SBK2-Tris-(Gd-DOTA)3] (H-C(X1)GEGDDFNWEQVNTLTKPTSD-OH; N-terminus and C-terminus assumed), the “increase in tumor CNR over scrambled Tris-(Gd-DOTA)3 or ProHance” value ([3]; 15 to 45 minutes post-injection, 0.1 mmol Gd/kg intravenous, P<0.001) is reported as roughly 55%, the “tumor CNR greater than the scrambled Tris-(Gd-DOTA)3 tumor CNR” value ([3]; 60 to 90 minutes, 0.1 mmol Gd/kg intravenous, P<0.001) is reported as “approximately 53%” and the “increase in tumor CNR compared with ProHance” value ([3]; 60 to 120 minutes post-injection, 0.1 mmol Gd/kg intravenous, P<0.001) is reported as “greater than 110%”. The “contrast enhancement compared with ProHance alone” value ([3]; mouse, in vivo) was “significantly higher”, the “Gd concentration in tumor at 60 minutes” value ([2]; 0.2 mmol Gd/kg) was “remains at near peak levels” and the “retention judged from slope of mean tumor normalized T1 values” ([2]; 0.2 mmol Gd/kg, measured every 2.5 minutes for 62.5 minutes) was “highest retention”. The “distribution of T1 changes in the tumor” value ([2]; 30 minutes and 60 minutes, larger tumors) was “uniformly distributed throughout the tumor”, the “time the agent remains in the tumor” value ([2]; compared with non-specific molecular imaging agents) was 1 h and the “non-specific uptake compared with scrambled-Tris-(Gd-DOTA)3” value ([2]; mouse, in vivo) was “nearly identical non-specific uptake”. The “concentration accumulated in tumor relative to scrambled-Tris-(Gd-DOTA)3” value ([2]; tumors containing the PTPμ fragment) was “about twice”.
For “C-GFTQPETGTDNDLWSVDNEK [scrambled, reference compound]”, the “time … to diminish” value ([2]; mouse, in vivo) was “thirty”.
With `CC(O)CN1CCN(CC(=O)[O-])CCN(CC(=O)[O-])CCN(CC(=O)[O-])CC1.[Gd+3]` (centres unmarked) [Prohance™, gadoteridol, reference compound] the “time … to diminish” value ([2]; mouse, in vivo) was “thirty”.
